Source: EP0619297B1, “Fungicides for the control of take-all desease of plants” (MONSANTO COMPANY, priority 1993, dated 1994)
In brackets after ≈: the same amount, converted by molar mass.

system: Gaeumannomyces graminis var. tritici (Ggt); test: In vitro assay: mycelial growth on minimal media agar plates (Percent Inhibition; IC50); assay type: cell-based; settings: 0.1 ppm in agar, 19 - 20 °C, 4 to 5 days, read-out: In vitro(ppm) 0.1, Percent Inhibition
Description: The test compounds (0.25 mL of an appropriate stock solution in acetone) are incorporated into 25 mL minimal media agar [prepared by autoclaving a solution of 17.5 g Czapek Dox broth (Difco), 7.5 g purified agar or Bacto-agar (Difco), and 500 mL distilled/deionized water, and then adding 50 µL of 1 mg/mL thiamine hydrochloride and 50 µL of 1 mg/mL biotin in 5% ethanol] and plates are prepared.
Each plate is inoculated by placing in a triangular shape three 4-mm plugs of Gaeumannomyces graminis var. tritici (Ggt) grown on the minimal media agar described above. The plates are incubated in the dark at 19 - 20 °C for 4 to 5 days. The growth of the fungus is measured as the diameter of the mycelial growth. The result is expressed as Percent Inhibition, calculated as [1 - [(mm growth on treated plate - 4)/(mm growth on control plate - 4)]] x 100.
To determine IC5O values, an in vitro assay was run on each compound at the concentrations of 1, 0.1, 0.01, 0.001, and 0.0001 ppm. The percent inhibition was calculated for each concentration using the equation described in the in vitro assay under the section on Biological Assays. Using the two ordered pairs of (concentration, % inhibition) that bracket 50% inhibition of fungal growth, the concentration for 50% inhibition is calculated from the following equation. IC50 = [(50-I2 )C1 + (I1 -50)C2 ]/(I1 -I2 ), [formula] where C1 = 10C2.

Row | Structure (SMILES) | inhibition at 0.1 ppm [%]
1 | C=CCNC(=O)c1c(OC(CC)(CC)CC)ccc2ccccc12 [Example 33, N-allyl 2-[(1,1-diethylpropyl)oxy]-1-naphthamide] | 97
2 | CCCN(CCC)C(=O)c1c(OC(CC)(CC)CC)ccc2ccccc12 [Example 35, N,N-dipropyl 2-[(1,1-diethylpropyl)oxy]-1-naphthamide] | 0
3 | CCNC(=O)c1c(OC(C)(CC)CC)ccc2ccccc12 [Example 28, N-ethyl 2-[(1,1-diethylethyl)oxy]-1-naphthamide] | 74
4 | CCCNC(=O)c1c(NC(C)(C)C)ccc2ccccc12 [Example 21, N-propyl 2-[(1,1-dimethylethyl)amino]-1-naphthamide] | 95
5 | CCNC(=O)c1c(OC(C)(C)C)ccc2ccccc12 [Example 6, 2-(1,1-Dimethylethoxy)-N-ethyl-1-naphthalenecarboxamide] | 21
6 | CCCNC(=O)c1c(NC(C)(CC)CC)ccc2ccccc12 [Example 24, N-propyl 2-[(1,1-diethylethyl)amino]-1-naphthamide] | 95
7 | CCNC(=O)c1c(NC(C)(CC)CC)ccc2ccccc12 [Example 23, N-ethyl 2-[(1,1-diethylethyl)amino]-1-naphthamide] | 21
8 | CCNC(=O)c1c(NC(C)(C)C)ccc2ccccc12 [Example 20, N-ethyl 2-[(1,1-dimethylethyl)amino]-1-naphthamide] | 80
9 | CCNC(=O)c1c(OC2(C)CCCCC2)ccc2ccccc12 [Example 38, N-ethyl 2-[(1-methyl-1-cyclohexyl)oxy]-1-naphthamide] | 0

same assay, conditions: 1 ppm in agar, 19 - 20 °C, 4 to 5 days, read-out: In vitro(ppm) 1, Percent Inhibition

Row | Structure (SMILES) | inhibition at 1 ppm [%]
10 | C=CCNC(=O)c1c(OC(CC)(CC)CC)ccc2ccccc12 [Example 33, N-allyl 2-[(1,1-diethylpropyl)oxy]-1-naphthamide] | 100
11 | CCCN(CCC)C(=O)c1c(OC(CC)(CC)CC)ccc2ccccc12 [Example 35, N,N-dipropyl 2-[(1,1-diethylpropyl)oxy]-1-naphthamide] | 19
12 | CCNC(=O)c1c(OC(C)(CC)CC)ccc2ccccc12 [Example 28, N-ethyl 2-[(1,1-diethylethyl)oxy]-1-naphthamide] | 96
13 | CCCNC(=O)c1c(NC(C)(C)C)ccc2ccccc12 [Example 21, N-propyl 2-[(1,1-dimethylethyl)amino]-1-naphthamide] | 97
14 | CCNC(=O)c1c(OC(C)(C)C)ccc2ccccc12 [Example 6, 2-(1,1-Dimethylethoxy)-N-ethyl-1-naphthalenecarboxamide] | 86
15 | CCCNC(=O)c1c(NC(C)(CC)CC)ccc2ccccc12 [Example 24, N-propyl 2-[(1,1-diethylethyl)amino]-1-naphthamide] | 95
16 | CCNC(=O)c1c(NC(C)(CC)CC)ccc2ccccc12 [Example 23, N-ethyl 2-[(1,1-diethylethyl)amino]-1-naphthamide] | 21
17 | CCNC(=O)c1c(NC(C)(C)C)ccc2ccccc12 [Example 20, N-ethyl 2-[(1,1-dimethylethyl)amino]-1-naphthamide] | 98
18 | CCNC(=O)c1c(OC2(C)CCCCC2)ccc2ccccc12 [Example 38, N-ethyl 2-[(1-methyl-1-cyclohexyl)oxy]-1-naphthamide] | 43

same assay, conditions: 10 ppm in agar, 19 - 20 °C, 4 to 5 days, read-out: In vitro(ppm) 10, Percent Inhibition

Row | Structure (SMILES) | inhibition at 10 ppm [%]
19 | C=CCNC(=O)c1c(OC(CC)(CC)CC)ccc2ccccc12 [Example 33, N-allyl 2-[(1,1-diethylpropyl)oxy]-1-naphthamide] | 100
20 | CCCN(CCC)C(=O)c1c(OC(CC)(CC)CC)ccc2ccccc12 [Example 35, N,N-dipropyl 2-[(1,1-diethylpropyl)oxy]-1-naphthamide] | 95
21 | CCNC(=O)c1c(OC(C)(CC)CC)ccc2ccccc12 [Example 28, N-ethyl 2-[(1,1-diethylethyl)oxy]-1-naphthamide] | 96
22 | CCCNC(=O)c1c(NC(C)(C)C)ccc2ccccc12 [Example 21, N-propyl 2-[(1,1-dimethylethyl)amino]-1-naphthamide] | 97
23 | CCNC(=O)c1c(OC(C)(C)C)ccc2ccccc12 [Example 6, 2-(1,1-Dimethylethoxy)-N-ethyl-1-naphthalenecarboxamide] | 93
24 | CCCNC(=O)c1c(NC(C)(CC)CC)ccc2ccccc12 [Example 24, N-propyl 2-[(1,1-diethylethyl)amino]-1-naphthamide] | 100
25 | CCNC(=O)c1c(NC(C)(CC)CC)ccc2ccccc12 [Example 23, N-ethyl 2-[(1,1-diethylethyl)amino]-1-naphthamide] | 43
26 | CCNC(=O)c1c(NC(C)(C)C)ccc2ccccc12 [Example 20, N-ethyl 2-[(1,1-dimethylethyl)amino]-1-naphthamide] | 100
27 | CCNC(=O)c1c(OC2(C)CCCCC2)ccc2ccccc12 [Example 38, N-ethyl 2-[(1-methyl-1-cyclohexyl)oxy]-1-naphthamide] | 30

same assay, conditions: interpolated from percent inhibition at 1, 0.1, 0.01, 0.001 and 0.0001 ppm

Row | IC50 [ng/mL] | Structure (SMILES)
28 | 6.47 (≈ 0.0199 µM) | C=CCNC(=O)c1c(OC(CC)(CC)CC)ccc2ccccc12 [Example 33, N-allyl 2-[(1,1-diethylpropyl)oxy]-1-naphthamide]
29 | 8.5 (≈ 0.0299 µM) | CCCNC(=O)c1c(NC(C)(C)C)ccc2ccccc12 [Example 21, N-propyl 2-[(1,1-dimethylethyl)amino]-1-naphthamide]
30 | 0.814 (≈ 0.00261 µM) | CCCNC(=O)c1c(NC(C)(CC)CC)ccc2ccccc12 [Example 24, N-propyl 2-[(1,1-diethylethyl)amino]-1-naphthamide]
31 | 6.62 (≈ 0.0222 µM) | CCNC(=O)c1c(NC(C)(CC)CC)ccc2ccccc12 [Example 23, N-ethyl 2-[(1,1-diethylethyl)amino]-1-naphthamide]
32 | 71.6 (≈ 0.265 µM) | CCNC(=O)c1c(NC(C)(C)C)ccc2ccccc12 [Example 20, N-ethyl 2-[(1,1-dimethylethyl)amino]-1-naphthamide]

same assay, conditions: read-out: In vitro(ppm) 0.1, Percent Inhibition

Row | Structure (SMILES) | inhibition at 0.1 ppm [%]
33 | CCNC(=O)c1c([Si](C)(C)C)ccc2ccoc12 [Example 44, N-ethyl 6-trimethylsilyl benzofuran-7-carboxamide] | 98
34 | CCN(CC)C(=O)c1c([Si](C)(C)C)sc2ccccc12 [Example 14, N,N-Diethyl-2-(trimethylsilyl)benzo[b]thiophene-3-carboxamide] | 42

same assay, conditions: read-out: In vitro(ppm) 1, Percent Inhibition

Row | Structure (SMILES) | inhibition at 1 ppm [%]
35 | CCNC(=O)c1c([Si](C)(C)C)ccc2ccoc12 [Example 44, N-ethyl 6-trimethylsilyl benzofuran-7-carboxamide] | 98
36 | CCN(CC)C(=O)c1c([Si](C)(C)C)sc2ccccc12 [Example 14, N,N-Diethyl-2-(trimethylsilyl)benzo[b]thiophene-3-carboxamide] | 92

same assay, conditions: read-out: In vitro(ppm) 10, Percent Inhibition

Row | Structure (SMILES) | inhibition at 10 ppm [%]
37 | CCNC(=O)c1c([Si](C)(C)C)ccc2ccoc12 [Example 44, N-ethyl 6-trimethylsilyl benzofuran-7-carboxamide] | 100
38 | CCN(CC)C(=O)c1c([Si](C)(C)C)sc2ccccc12 [Example 14, N,N-Diethyl-2-(trimethylsilyl)benzo[b]thiophene-3-carboxamide] | 100

system: Ggt; test: In vivo assay: control of Ggt on wheat in 3-inch pots with infested soil, rated after four weeks;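 on In vivo(ppm) 0.1, percent disease control: rate is mg active ingredient per pot in 3 mL solution not ppm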;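 on In vivo(ppm) 0.5, percent disease control: rate is mg active ingredient per pot in 3 mL solution not ppm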; design: species or system Gaeumannomyces graminis var. tritici; settings: Gaeumannomyces graminis, 672 h; rate 0.02mg/pot; wheat, soil infested with Ggt, after four weeks; read-out: In vivo(ppm) 0.02mg/pot, percent disease control
Description: Compounds are tested for control of Ggt on 'Bergen' or 'Anza' varieties of wheat grown in 3-inch square pots containing soil infested with Ggt. The infestation is accomplished by mixing the soil with an inoculum prepared by growing Ggt on 1/4 strength potato dextrose agar (4.875 g potato dextrose agar, 5.0 g Bacto agar, 500 mL distilled, deionized water) in plates and using plugs from the plates to infest sterile oats (400 cc whole oats, 350 mL deionized water, autoclaved). After a one-month incubation period at room temperature, the oats are dried and mixed with the soil at 4% v/v. Four wheat seeds are placed on top of the soil in each pot. […] Five pots are used for each treatment level and the controls, which are untreated, inoculated and non-inoculated pots. After one hour drying time, the seeds are covered with more of the appropriate soil and a layer of vermiculite. The pots are placed in a growth chamber and watered each day. After four weeks, each pot is evaluated for evidence of disease by examination of the seminal roots of each plant under a dissecting microscope. A 0 to 5 rating scale having the following meanings is used: • 0 = no runner hyphae or lesions present • 1 = runner hyphae and a few small lesions present on <10% of root system • 2 = runner hyphae and small lesions present on 10 - 25% of root system • 3 = runner hyphae and lesions present on 25 - 50% of root system • 4 = runner hyphae and many, large, coalescing lesions on >50% of root system • 5 = root system and culm completely inundated with lesions and runner hyphae
From each set of five replicates a high or low score may be eliminated to assure the best representative scores are used to calculate a replicate mean by averaging the remaining scores. This mean score is then compared to the untreated control score and a percent disease control is calculated.

Row | Structure (SMILES) | pest or weed control at 0.02 mg/pot [%]
39 | C=CCNC(=O)c1c(OC(CC)(CC)CC)ccc2ccccc12 [Example 33, N-allyl 2-[(1,1-diethylpropyl)oxy]-1-naphthamide] | 19
40 | CCCN(CCC)C(=O)c1c(OC(CC)(CC)CC)ccc2ccccc12 [Example 35, N,N-dipropyl 2-[(1,1-diethylpropyl)oxy]-1-naphthamide] | 0
41 | CCNC(=O)c1c(OC(C)(CC)CC)ccc2ccccc12 [Example 28, N-ethyl 2-[(1,1-diethylethyl)oxy]-1-naphthamide] | 19
42 | CCCNC(=O)c1c(NC(C)(C)C)ccc2ccccc12 [Example 21, N-propyl 2-[(1,1-dimethylethyl)amino]-1-naphthamide] | 35
43 | CCCNC(=O)c1c(NC(C)(CC)CC)ccc2ccccc12 [Example 24, N-propyl 2-[(1,1-diethylethyl)amino]-1-naphthamide] | 32
44 | CCNC(=O)c1c(NC(C)(CC)CC)ccc2ccccc12 [Example 23, N-ethyl 2-[(1,1-diethylethyl)amino]-1-naphthamide] | 50
45 | CCNC(=O)c1c(NC(C)(C)C)ccc2ccccc12 [Example 20, N-ethyl 2-[(1,1-dimethylethyl)amino]-1-naphthamide] | 5

same assay, conditions: Gaeumannomyces graminis, 672 h; rate 0.1 (head prints ppm, head line ends mg/pot); wheat, soil infested with Ggt, after four weeks; N = no control; read-out: In vivo(ppm) 0.1, percent disease control

Row | Structure (SMILES) | pest or weed control at 0.1 mg/pot [%]
46 | C=CCNC(=O)c1c(OC(CC)(CC)CC)ccc2ccccc12 [Example 33, N-allyl 2-[(1,1-diethylpropyl)oxy]-1-naphthamide] | 45
47 | CCCN(CCC)C(=O)c1c(OC(CC)(CC)CC)ccc2ccccc12 [Example 35, N,N-dipropyl 2-[(1,1-diethylpropyl)oxy]-1-naphthamide] | 0
48 | CCNC(=O)c1c(OC(C)(CC)CC)ccc2ccccc12 [Example 28, N-ethyl 2-[(1,1-diethylethyl)oxy]-1-naphthamide] | 40
49 | CCCNC(=O)c1c(NC(C)(C)C)ccc2ccccc12 [Example 21, N-propyl 2-[(1,1-dimethylethyl)amino]-1-naphthamide] | 60
50 | CCNC(=O)c1c(OC(C)(C)C)ccc2ccccc12 [Example 6, 2-(1,1-Dimethylethoxy)-N-ethyl-1-naphthalenecarboxamide] | 53
51 | CCCNC(=O)c1c(NC(C)(CC)CC)ccc2ccccc12 [Example 24, N-propyl 2-[(1,1-diethylethyl)amino]-1-naphthamide] | 38
52 | CCNC(=O)c1c(NC(C)(CC)CC)ccc2ccccc12 [Example 23, N-ethyl 2-[(1,1-diethylethyl)amino]-1-naphthamide] | 65
53 | CCNC(=O)c1c(NC(C)(C)C)ccc2ccccc12 [Example 20, N-ethyl 2-[(1,1-dimethylethyl)amino]-1-naphthamide] | 24

same assay, conditions: Gaeumannomyces graminis, 672 h; rate 0.5 (head prints ppm, head line ends mg/pot); wheat, soil infested with Ggt, after four weeks; N = no control; read-out: In vivo(ppm) 0.5, percent disease control

Row | Structure (SMILES) | pest or weed control at 0.5 mg/pot [%]
54 | C=CCNC(=O)c1c(OC(CC)(CC)CC)ccc2ccccc12 [Example 33, N-allyl 2-[(1,1-diethylpropyl)oxy]-1-naphthamide] | 59
55 | CCCN(CCC)C(=O)c1c(OC(CC)(CC)CC)ccc2ccccc12 [Example 35, N,N-dipropyl 2-[(1,1-diethylpropyl)oxy]-1-naphthamide] | 1
56 | CCNC(=O)c1c(OC(C)(CC)CC)ccc2ccccc12 [Example 28, N-ethyl 2-[(1,1-diethylethyl)oxy]-1-naphthamide] | 78
57 | CCCNC(=O)c1c(NC(C)(C)C)ccc2ccccc12 [Example 21, N-propyl 2-[(1,1-dimethylethyl)amino]-1-naphthamide] | 78
58 | CCCNC(=O)c1c(NC(C)(CC)CC)ccc2ccccc12 [Example 24, N-propyl 2-[(1,1-diethylethyl)amino]-1-naphthamide] | 76
59 | CCNC(=O)c1c(NC(C)(CC)CC)ccc2ccccc12 [Example 23, N-ethyl 2-[(1,1-diethylethyl)amino]-1-naphthamide] | 85
60 | CCNC(=O)c1c(NC(C)(C)C)ccc2ccccc12 [Example 20, N-ethyl 2-[(1,1-dimethylethyl)amino]-1-naphthamide] | 61

same assay, conditions: Gaeumannomyces graminis, soil, 672 h, read-out: In vivo(ppm) 0.1, percent disease control

Row | Structure (SMILES) | pest or weed control at 0.1 mg/pot [%]
61 | CCN(CC)C(=O)c1c([Si](C)(C)C)sc2ccccc12 [Example 14, N,N-Diethyl-2-(trimethylsilyl)benzo[b]thiophene-3-carboxamide] | 76

same assay, conditions: Gaeumannomyces graminis, soil, 672 h, read-out: In vivo(ppm) 0.5, percent disease control

Row | Structure (SMILES) | pest or weed control at 0.5 mg/pot [%]
62 | CCN(CC)C(=O)c1c([Si](C)(C)C)sc2ccccc12 [Example 14, N,N-Diethyl-2-(trimethylsilyl)benzo[b]thiophene-3-carboxamide] | 94
